Assay results taken from ChEMBL document CHEMBL3400138, “Synthesis of 3-azabicyclo[3.2.2]nonanes and their antiprotozoal activities” (Bioorg Med Chem Lett, 2015).
≈ marks a conversion by molar mass, not a printed value.

Assays:
[1] = Selectivity index, ratio of CC50 for rat L6 cells to IC50 for Trypanosoma brucei rhodesiense STIB900; assay type: functional
[2] = system: Mycolicibacterium smegmatis; assay: Antimycobacterial activity against Mycobacterium smegmatis ATCC 14468 assessed as inhibition of bacterial growth after 72 hrs by MTT dye based microbroth dilution assay; assay type: functional; settings: ATCC 14468, 72 h
[3] = system: Plasmodium falciparum; assay: Antiplasmodial activity against chloroquine and pyrimethamine resistant Plasmodium falciparum K1 infected in human red blood cells assessed as reduction in parasite viability after 48 hrs by [3H]-hypoxanthine incorporation assay; assay type: functional, organism-based
[4] = Selectivity index, ratio of CC50 for rat L6 cells to IC50 for chloroquine and pyrimethamine resistant Plasmodium falciparum K1; assay type: functional
[5] = system: Trypanosoma brucei rhodesiense; assay: Antitrypanosomal activity against Trypanosoma brucei rhodesiense STIB900 bloodstream forms after 72 hrs by alamar blue assay; assay type: functional, organism-based; settings: STIB900, 72 h
[6] = system: L6; assay: Cytotoxicity against rat L6 cells after 72 hrs by alamar blue assay; assay type: cell-based; settings: L6, 72 h
[7] = system: Plasmodium berghei; assay: Antiplasmodial activity against GFP-transfected Plasmodium berghei ANKA infected in NMRI mouse assessed as reduction in parasitemia at 50 mg/kg, ip administered 4, 24, 48 and 72 hrs post infection by FACS analysis; assay type: functional; settings: route intraperitoneal
[8] = system: Plasmodium berghei; assay: Antiplasmodial activity against GFP-transfected Plasmodium berghei ANKA infected in NMRI mouse assessed as mean survival day at 50 mg/kg, ip administered 4, 24, 48 and 72 hrs post infection (reference value: 4 to 6 days); assay type: functional; settings: route intraperitoneal
[9] = system: Plasmodium berghei; assay: Growth inhibition of Plasmodium berghei infected in mouse; assay type: functional
[10] = system: Escherichia coli; assay: Antibacterial activity against Escherichia coli ATCC 25922 at 100 ug after 24 hrs; assay type: functional; settings: ATCC 25922, 24 h, read-out: DIZ
[11] = system: Proteus mirabilis; assay: Antibacterial activity against Proteus mirabilis ATCC 14153 at 100 ug after 24 hrs; assay type: functional; settings: ATCC 14153, 24 h, read-out: DIZ
[12] = system: Candida parapsilosis; assay: Antifungal activity against Candida parapsilosis ATCC 90018 at 100 ug after 48 hrs; assay type: functional, organism-based
[13] = system: Candida tropicalis; assay: Antifungal activity against Candida tropicalis ATCC 13803 at 100 ug after 48 hrs; assay type: functional, organism-based
[14] = system: Plasmodium berghei; assay: Antiplasmodial activity against GFP-transfected Plasmodium berghei ANKA infected in NMRI mouse assessed as reduction in parasitemia at 10 mg/kg, ip administered 4, 24, 48 and 72 hrs post infection by FACS analysis; assay type: functional; settings: route intraperitoneal
[15] = system: Plasmodium berghei; assay: Antiplasmodial activity against GFP-transfected Plasmodium berghei ANKA infected in NMRI mouse assessed as mean survival day at 10 mg/kg, ip administered 4, 24, 48 and 72 hrs post infection (reference value: 4 days); assay type: functional; settings: route intraperitoneal

Which “Ratio IC50” value [1] does the source give for `Cl.Clc1ccc(C2CC3(N4CCCC4)CCNC2C(c2ccc(Cl)cc2)C3)cc1` (racemic) here?
The value was 152.

Which MIC [2] does the source give for `NNC(=O)c1ccncc1` [ISONIAZID] here?
The MIC was 4 µg/mL (≈ 29.2 µM).

With `CN(C)C12CC(=O)NC(C(c3ccccc3)C1)C(c1ccccc1)C2.Cl` (racemic) as the compound, how does the “Ratio IC50” value [1] read?
Its value is 7.1.

Which “Ratio IC50” value [1] does the source give for `Cl.c1ccc(C2CC3(N4CCCCC4)CCNC2C(c2ccccc2)C3)cc1` (racemic) here?
Its value is 13.7.

What does the source list for `Cl.Clc1ccc(C2CC3(N4CCCCC4)CNCC2C(c2ccc(Cl)cc2)C3)cc1` (racemic)?
IC50 [3]: 370 nM; Ratio IC50 [4]: 21.86; IC50 [5]: 320 nM; Ratio IC50 [1]: 25.3; IC50 [6]: 8.09 µM

Which results are given for `CN(C)C12CNCC(C(c3ccccc3)C1)C(c1ccccc1)C2.Cl` (racemic)?
IC50 [3]: 270 nM; Ratio IC50 [4]: 452.2; inhibition in vivo at 50 mg/kg [7]: 0%; IC50 [5]: 1580 nM; Ratio IC50 [1]: 77.3; IC50 [6]: 122 µM; MSD [8]: 4 days

Which IC50 [5] does the source give for `Cl.Clc1ccc(C2CC3(N4CCCC4)CNCC2C(c2ccc(Cl)cc2)C3)cc1` (racemic) here?
Its IC50 is 260 nM.

What about the “Ratio IC50” value [1] of the same compound?
The value was 35.

What about the IC50 [6] of the same compound?
The IC50 was 9.11 µM.

Which IC50 [3] does the source give for `Cl.c1ccc(C2CC3(N4CCOCC4)CCNC2C(c2ccccc2)C3)cc1` (racemic) here?
The IC50 was 6840 nM.

And the “Ratio IC50” value [4]?
The value was 30.22.

What about the IC50 [5] of the same compound?
The IC50 was 9440 nM.

And the “Ratio IC50” value [1]?
Its value is 21.9.

And the IC50 [6]?
The IC50 was greater than 207 µM.

With `CN(C)C12CCNC(C(c3ccccc3)C1)C(c1ccccc1)C2.Cl` (racemic) as the compound, how does the “growth inhibition (GI)” value [9] read?
The value was 35%.

And the inhibition in vivo at 50 mg/kg [7]?
The inhibition in vivo at 50 mg/kg was 35.1%.

And the “Ratio IC50” value [1]?
The value was 181.

What about the MSD [8] of the same compound?
The MSD was 6.3 days.

For `NC[C@H]1O[C@H](O[C@H]2[C@H](O)[C@@H](O[C@H]3O[C@H](CO)[C@@H](O)[C@H](N)[C@H]3O)[C@H](N)C[C@@H]2N)[C@H](O)[C@@H](O)[C@@H]1O` [KANAMYCIN], which zone of inhibition at 100 µg/disc [10] is on record?
Its zone of inhibition at 100 µg/disc is 20 mm.

And the zone of inhibition at 100 µg/disc [11]?
Its zone of inhibition at 100 µg/disc is 20 mm.

With NYSTATIN as the compound, how does the inhibition zone (IZ) [12] read?
The inhibition zone (IZ) was 25 mm.

What about the inhibition zone (IZ) [13] of the same compound?
Its inhibition zone (IZ) is 20 mm.

What does the source list for `CCN(CC)CCCC(C)Nc1ccnc2cc(Cl)ccc12` (centres undefined) [CHLOROQUINE]?
inhibition in vivo at 10 mg/kg [14]: 99.6%; MSD [15]: 20 days
